Values of other authors in patent US20040142049A1, “Compositions having tnf production inhibitory effect and tnf production inhibitors” (priority 2001, published 2004).

System: TNF
Details: background art, prior publications

COc1cc(/C=C/C(=O)CC(=O)/C=C/c2ccc(O)c(OC)c2)ccc1O [curcumin]
TNF production inhibitory effect (in words): has a TNF production inhibitory effect
